For one assay, the target named is T1, dopamine transporter (Rattus norvegicus, UniProt P23977).
T1 construct: Corpus striatum from male Wistar rats (150-200 g) is homogenized; from tissue; host or cells: corpus striatum of male Wistar rats
In words: In vitro inhibition of ^3 H-WIN 35428 binding (corpus striatum). Details: species or system rat (male Wistar). The settings on record: rat corpus striatum, ^3 H-WIN 35428 1 nM, 60 min at 2° C.; read-out: in vitro IC50. From the text: The compounds of the present invention have been tested for their ability to bind to the dopamine transporter in the following tests for in vitro and in vivo inhibition of ^3 H-WIN 35428.
In vitro inhibition of ^3 H-WIN 35428 binding
Dopamine transporters/uptake sites on nerve terminals presumably function to terminate neuronal signaling by removing dopamine from the synaptic cleft. The activity or presence of the dopamine transporter integral protein can be measured in vitro with synaptosomal uptake of ^3 H-dopamine or membrane binding assays with ^3 H-ligands known to bind to the transporter.
Numerous ligands of several structural types have been reported to bind at the dopamine uptake site, but it remains questionable whether their binding sites are identical to that of cocaine.
Tissue preparation: Preparations are performed at 0°-4° C. unless otherwise indicated. Corpus striatum from male Wistar rats (150-200 g) is homogenized for 5-10 sec in 10 ml NaH2 PO4 (50 mM, pH 7.4) using an Ultra-Turrax homogenizer. The suspension is centrifuged at 27,000×g for 15 min. The supernatant is discarded and the pellet is resuspended in 50 mM NaH2 PO4, pH 7.4 (1000 ml per g of original tissue) and used for binding assays.
Assay: Aliquots of 0.5 ml tissue are added to […] of ^3 H-WIN 35428 (1 nM, final concentration), mixed and incubated for 60 min at 2° C. Non-specific binding is determined using cocaine ([…], final concentration). After incubation the samples are added 5 ml of ice-cold buffer and poured directly onto Whatman GF/C glass fibre filters under suction and immediately washed with 5 ml ice-cold buffer. The amount of radioactivity on the filters is determined by conventional liquid scintillation counting. Specific binding is total binding minus non-specific binding.
25-75% inhibition of specific binding must be obtained, before calculation of an IC50. The test value is given as IC50 (the concentration (μM) of the test substance which inhibits the specific binding of ^3 H-WIN 35428 by 50%).

Assay [1] has as its target T2, ^3 H-noradrenaline uptake (noradrenaline transporter) (Rattus norvegicus, UniProt Q63380).
T2 construct: Hippocampi from male Wistar rats (150-200 g) are homogenized; from tissue; host or cells: P2 synaptosomes of hippocampus, male Wistar rats
In words: In vitro inhibition of ^3 H-noradrenaline (^3 H-NA) uptake in hippocampal synaptosomes. Type of assay: biochemical, rat (male Wistar). The conditions noted are these: ^3 H-NA 1 nM, 90 min at 37° C. From the text: (§1) The compounds of the invention have also been tested for their ability to inhibit reuptake of dopamine(DA) noradrenalin(NA) and serotonin(5-HT) in synaptosomes.
(§2) Specific neurotransmitter transporters/uptake sites on nerve terminals presumably function to terminate neuronal signaling by removing the neurotransmitters dopamine, noradrenaline and serotonin, respectively, from the synaptic cleft. The activity of the transporter integral proteins can be measured in vitro by synaptosomal uptake of ^3 H-dopamine, ^3 H-noradrenaline and ^3 H-serotonine, respectively.
In vitro inhibition of ^3 H-noradrenaline (^3 H-NA) uptake in hippocampal synaptosomes
(§3) Tissue preparation: Preparations are performed at 0°-4° C. unless otherwise indicated. Hippocampi from male Wistar rats (150-200 g) are homogenized for 5-10 sec in 100 volumes of ice-cold 0.32M sucrose containing 1 mM pargyline using an Ultra-Turrax homogenizer. Monoamine oxidase activity will be inhibited in the presence of pargyline. The homogenate is centrifuged at 1000×g for 10 min. The resulting supernatant is then centrifuged at 27,000×g for 50 min and the supernatant is discarded. The pellet (P2) is resuspended in oxygenated (equilibrated with an atmosphere of 96% O2 : 4% CO2 for at least 30 min) Krebs-Ringer incubation buffer (2000 ml per g of original tissue) at pH 7.2 containing 122 mM NaCl, 0.16 mM EDTA, 4.8 mM KCl, 12.7 mM Na2 HPO4, 3.0 mM NaH2 PO4, 1.2 mM MgSO4, 0.97 mM CaCl2, 10 mM glucose and 1 mM ascorbic acid.
Assay: Aliquots of 4.0 ml tissue suspension are added to 100 μl of test solution and 100 μl of ^3 H-NA (1 nM, final concentration), mixed and incubated for 90 min at 37° C. Non-specific uptake is determined using desipramine (1 μM, final concentration). After incubation the samples are poured directly onto Whatman GF/C glass fibre filters under suction. […] The amount of radioactivity on the filters is determined by conventional liquid scintillation counting. Specific uptake is calculated as the difference between total uptake and non-specific uptake. […]

The target of assay [2] is T3, dopamine transporter (^3 H-dopamine uptake) (Rattus norvegicus, UniProt P23977).
T3 construct: Corpi striati from male Wistar rats (150-200 g) are homogenized; from tissue; host or cells: P2 synaptosomes of corpus striatum, male Wistar rats
In words: In vitro inhibition of ^3 H-dopamine (^3 H-DA) uptake in striatal synaptosomes. The conditions noted are these: ^3 H-DA 1 nM, 25 min at 37° C. Type of assay: biochemical, rat (male Wistar).
Description: as §1, §2
In vitro inhibition of ^3 H-dopamine (^3 H-DA) uptake in striatal synaptosomes
as §3, with “Tissue preparations:” for “Tissue preparation:”, “indicated. Corpi striati” for “indicated. Hippocampi”, “resulting supermatant” for “resulting supernatant”, “buffer (8000” for “buffer (2000”, “MgSO4, 1” for “MgSO4, 0.97”
Assay: Aliquots of 4.0 ml tissue suspension are added to 100 μl of test solution and 100 μl of ^3 H-DA (1 nM, final concentration), mixed and incubated for 25 min at 37° C. Non-specific uptake is determined using benztropine (10 μM, final concentration). After incubation the samples are poured directly onto Whatman GF/C glass fibre filters under suction. […] The amount of radioactivity on the filters is determined by conventional liquid scintillation counting. Specific uptake is calculated as the difference between total uptake and non-specific uptake. […]

Structures can show the parent of a compound that is named as a salt.

T2 sequence (Q63380 1-617): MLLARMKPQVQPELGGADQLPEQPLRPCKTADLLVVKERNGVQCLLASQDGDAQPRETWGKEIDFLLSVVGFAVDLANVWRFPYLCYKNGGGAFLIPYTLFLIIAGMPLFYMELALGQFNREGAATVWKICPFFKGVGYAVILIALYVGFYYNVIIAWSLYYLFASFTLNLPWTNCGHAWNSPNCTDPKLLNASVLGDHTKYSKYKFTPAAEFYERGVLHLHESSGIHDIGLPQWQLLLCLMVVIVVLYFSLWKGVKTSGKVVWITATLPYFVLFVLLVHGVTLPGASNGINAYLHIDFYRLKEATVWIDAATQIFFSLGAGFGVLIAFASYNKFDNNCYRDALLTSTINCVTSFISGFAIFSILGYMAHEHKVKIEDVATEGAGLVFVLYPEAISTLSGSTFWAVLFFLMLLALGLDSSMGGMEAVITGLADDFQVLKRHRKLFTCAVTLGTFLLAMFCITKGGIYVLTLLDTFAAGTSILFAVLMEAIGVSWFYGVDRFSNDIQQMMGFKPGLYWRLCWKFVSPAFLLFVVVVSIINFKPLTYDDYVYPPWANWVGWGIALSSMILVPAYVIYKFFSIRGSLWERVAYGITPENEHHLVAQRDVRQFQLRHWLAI
T1 sequence (P23977 whole entry): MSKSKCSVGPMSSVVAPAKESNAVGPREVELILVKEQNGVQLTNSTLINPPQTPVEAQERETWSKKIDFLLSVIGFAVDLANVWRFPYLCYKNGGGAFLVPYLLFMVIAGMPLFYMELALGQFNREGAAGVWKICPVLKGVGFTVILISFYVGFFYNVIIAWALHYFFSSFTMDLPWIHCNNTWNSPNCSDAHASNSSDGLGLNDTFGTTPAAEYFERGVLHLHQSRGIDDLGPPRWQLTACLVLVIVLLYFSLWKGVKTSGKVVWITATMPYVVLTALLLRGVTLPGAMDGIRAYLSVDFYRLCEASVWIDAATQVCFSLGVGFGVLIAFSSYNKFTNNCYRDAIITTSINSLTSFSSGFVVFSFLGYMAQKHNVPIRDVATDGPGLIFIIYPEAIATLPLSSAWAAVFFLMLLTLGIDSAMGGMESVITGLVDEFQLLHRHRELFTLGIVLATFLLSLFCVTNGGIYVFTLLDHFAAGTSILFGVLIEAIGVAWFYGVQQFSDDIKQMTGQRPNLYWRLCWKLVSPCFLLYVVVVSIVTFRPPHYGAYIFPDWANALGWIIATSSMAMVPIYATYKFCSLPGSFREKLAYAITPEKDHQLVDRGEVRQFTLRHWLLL
T3 sequence (P23977 whole entry): as above

With `CON=C[C@@H]1[C@@H](c2ccc(Cl)c(Cl)c2)C[C@@H]2CC[C@H]1N2C` [(1R,2R,3S)-3-(3,4-dichlorophenyl)-tropane-2-O-methyl-aldoxime, H2 SO4], the IC50 at dopamine transporter was 3 nM; in assay [1] it was 1.3 nM; in assay [2], 3 nM.
Regarding `CON=C[C@@H]1[C@@H](c2ccc(Cl)c(Cl)c2)C[C@@H]2CC[C@H]1N2` [(1R,2R,3S)-N-Normethyl-3-(3,4-dichlorophenyl)tropane-2-O-methyl-aldoxime, hydrochloride], the IC50 on dopamine transporter is 6 nM; in assay [1] it was 1.3 nM; in assay [2] it was 2 nM.

As a reminder, the IC50 is the point on the concentration scale where inhibition reaches its midpoint.

The record behind these values is patent publication US5736556A, “Tropane-2-aldoxime derivatives as nevro transmitter reuptake inhibitors” (NeuroSearch A/S, priority 1994, dated 1998).
